# Assay results as given in US8772312B2, “Heterocyclic compounds as CRTH2 receptor antagonists” (CSPC Zhongqi Pharmaceutical Technology (Shijiazhuang) Co., …, priority 2007, dated 2014).
# Assays:
# [1] = target: T1, CRTH2 (Homo sapiens, UniProt Q9Y5Y4); assay: MDS Prostanoid CRTH2 Binding Assay (Catalog #268030), radioligand binding; settings: 20 nM of tested compound; ligand 1 nM [3H]PGD2; human recombinant CHO-K1 cells; 2 hours @ 25° C.
# T1 construct: host or cells: CHO-K1
# T1 sequence (Q9Y5Y4 1-395): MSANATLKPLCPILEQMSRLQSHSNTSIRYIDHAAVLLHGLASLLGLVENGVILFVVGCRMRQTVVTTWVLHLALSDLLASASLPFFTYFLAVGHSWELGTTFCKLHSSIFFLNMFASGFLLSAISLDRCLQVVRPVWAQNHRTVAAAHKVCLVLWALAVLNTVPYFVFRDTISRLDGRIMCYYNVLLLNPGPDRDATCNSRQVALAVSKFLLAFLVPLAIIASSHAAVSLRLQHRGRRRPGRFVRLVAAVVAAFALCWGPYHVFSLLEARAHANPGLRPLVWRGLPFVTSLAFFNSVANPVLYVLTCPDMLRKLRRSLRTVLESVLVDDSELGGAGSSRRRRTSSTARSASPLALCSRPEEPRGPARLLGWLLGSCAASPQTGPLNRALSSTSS
# Protocol: The CRTH2 binding affinity of compounds of Formula I were assayed by MDS Pharma Service using the following reagents and conditions:
# • MDS Prostanoid CRTH2 Binding Assay (Catalog #268030): • Source: Human recombinant CHO-K1 cells • Ligand: 1 nM [^3H]
# [2] = target: T1, CRTH2; settings: radioligand [3H] Prostaglandin D2; historical value of the MDS assay; cited from earlier work
SMILES,% inhibition of PGD2 binding [1] [%],Kd [2] [nM]
"CN(C1CCc2c(CC(=O)O)c3ccc(Cl)nc3n2C1)S(=O)(=O)c1ccc(F)cc1 (single isomer, unassigned) [Example 2A]",97,–
"CN(C1CCc2c(CC(=O)O)c3ccc(Cl)nc3n2C1)S(=O)(=O)c1ccc(F)cc1 (single isomer, unassigned) [Example 2B]",0,–
"CN(C1CCc2c(CC(=O)O)c3cccnc3n2C1)S(=O)(=O)c1ccc(F)cc1 (single isomer, unassigned) [Example 4A]",91,–
"CCCCC[C@H](O)/C=C/[C@H]1C(=O)C[C@H](O)[C@@H]1C/C=C\CCCC(=O)O [PGD2, Prostaglandin D2]",–,4.1
"CN(C1CCc2c(CC(=O)O)c3cccnc3n2C1)S(=O)(=O)c1ccc(F)cc1 (single isomer, unassigned) [Example 4B]",0,–
